This note sets out measurements from US7825151B2, “Hexahydro-cyclooctyl pyrazole cannabinoid modulators” (priority 2005, dated 2010).

The subject of one assay is DSS induced colitis. As to the kind of experiment: Dextran sulfate sodium (DSS) induced colitis model. It is filed as in vivo, Female Balb/c mice. Particulars: for % Inh (Macro), % inhibition of colitis: macroscopic score. The text has this: In the distal colon, the DSS colitis model is characterized by a discontinuous pattern of mucosal epithelial damage, infiltration of inflammatory cells (including macrophages, neutrophils and lymphocytes) into the mucosa and submucosa, […] wet weight of the colon, shrinkage of the colon length and diarrhea (see, Blumberg R. S., Saubermann L. J. and Strober W., Animal models of mucosal inflammation and their relation to human inflammatory bowel disease, Current Opinion in Immunology, 1999, Vol. 11: 648-656; Egger B., Bajaj-Elliott M., MacDonald T. T., Inglin R., Eysselein, V. E. and Buchler M. W., Characterization of acute murine dextran sodium sulphate colitis: Cytokine profile and dose dependency, Digestion, 2000, Vol. 62: 240-248; Stevceva L., Pavli P., Husband A. J. and Doe, W. F., The inflammatory infiltrate in the acute stage of the dextran sulphate sodium induced colitis: B cell response differs depending on the percentage of DSS used to induce it, BMC Clinical Pathology, 2001, Vol 1: 3-13; and Diaz-Granados, Howe K., Lu J. and McKay D. M., Dextran sulfate sodium-induced colonic histopathology, but not altered epithelial ion transport, is reduced by inhibition of phosphodiesterase activity, Amer. J. Pathology, 2000, Vol. 156: 2169-2177).
Female Balb/c mice (Taconic Farms, Germantown, N.Y.) (10-13 weeks old) were provided with a solution of 5% DSS (45 kD molecular weight, ICN chemicals, Newport, Calif.) in tap water ad libitum over a 7-day period. The DSS solution was replenished daily and the amount consumed was measured.
The mice (10 per treatment group) were orally administered a test compound on the day of colitis induction and then daily thereafter.
Six days after the initial DSS administration, the last test compound dose was administered.
Seven days after the initial DSS administration, the animals were sacrificed. The colons were resected, examined for signs of inflammation, weighed after removing fecal contents and the length from the aboral end of the cecum to the anus was measured. The fecal contents were examined for signs of diarrhea. The distal colon between the 1st and the 4th centimeter was removed and placed in 10% neutral buffered formalin for histological analysis.
The macroscopic observations of colon inflammation (a measure of colon damage), colon length and stool consistency and appearance were assigned a score and used to evaluate colitis severity.
The three observation scores for each colon were combined, whereby a combined score of 0 represents a normal colon and a combined score of 11 represents a maximally affected colon. Statistical analyses were performed in Graphpad Prism 4.0 using ANOVA.
Histological analyses of tissues consisted of staining paraffin-embedded tissue sections with hematoxylin-eosin dye. The tissues were examined using light microscopy by an investigator who was blinded to the sample groups.
The microscopic observations of epithelial damage, cellular infiltration and damage or alteration of smooth muscle architecture (a measure of muscle damage) were assigned a score and used to evaluate colitis severity.
The scores for each colon were combined, whereby a combined score of 0 represents a normal colon and a combined score of 9 represents a maximally affected colon. […]
The Macroscopic Score and Microscopic Score results for each treatment group were each combined into a mean score and expressed as % inhibition of colitis (% Inh). […] ND represents Not Determined.

The next assay concerns the target T1, CB2 receptor (Homo sapiens, UniProt P34972).
T1 construct: expressed in transfected cells; host or cells: SK-N-MC cells, stably transfected with pcDNA3 CB-2 (human)
Briefly: Binding assay for CB2 ([3H]-CP-55,940 displacement, SK-N-MC membranes). On the procedure: The human CB1 and CB2 receptors were stably expressed in SK-N-MC cells transfected with pcDNA3 CB-1 (human) or pcDNA3 CB-2 (human). The cells were grown in T-180 cell culture flasks under standard cell culture conditions at 37° C. in a 5% CO2 atmosphere. The cells were harvested by trysinization and homogenized in a homogenization buffer (10 mM Tris, 0.2 mM MgCl2, 5 mM KCl, with protease inhibitors aprotinin, leupeptin, pepstatin A and bacitracin) and centrifuged (2000 g). The supernatant was then centrifuged in 2M sucrose (31,300 g) to produce a semi-purified membrane pellet. The pellet was resuspended in homogenization and stored at −80° C.
On the day of the assay, the pellet was thawed on ice and diluted in assay buffer (50 mM Tris-HCl, 5 mM MgCl2, 2.5 mM EDTA, 0.5 mg/mL fatty acid free bovine serum albumin, pH 7.5). The diluted membrane pellet was added with buffer, either a test compound or vehicle standard and the radioligand [H]^3+-CP-55,940 (0.2 nM) to the wells of a 96-well polypropylene plate. Non-specific binding was measured in wells containing WIN 55,212 (10 uM). The plate was covered and incubated for 90 minutes at 30° C. The contents were then aspirated onto a Packard Unifilter GF/C filter bottom plate prewet with 0.5% polyethyleneimine. The wells of the polypropylene plate were rinsed and aspirated seven times with a 0.9% saline-0.5% Tween 20 solution. The Unifilter plate was dried, scintillation cocktail was added to each well and the counts representing binding were quantitated in a TopCount scintillation counter.
For compounds tested, an IC50 binding value was obtained from percent inhibition studies in which various test concentrations were used. The binding value was calculated by linear regression.
For compounds without an IC50 binding value, the percent inhibition (%) was obtained at a test concentration of ^(1)10 μM, ^(2)1 μM, ^(3)0.2 μM, ^(4)0.003 μM, ^(5) represents an average value.

“And” between values parts separate entries of the source, which are not always exact repeats. Equal entries are not always repeated.

T1 sequence (P34972 whole entry): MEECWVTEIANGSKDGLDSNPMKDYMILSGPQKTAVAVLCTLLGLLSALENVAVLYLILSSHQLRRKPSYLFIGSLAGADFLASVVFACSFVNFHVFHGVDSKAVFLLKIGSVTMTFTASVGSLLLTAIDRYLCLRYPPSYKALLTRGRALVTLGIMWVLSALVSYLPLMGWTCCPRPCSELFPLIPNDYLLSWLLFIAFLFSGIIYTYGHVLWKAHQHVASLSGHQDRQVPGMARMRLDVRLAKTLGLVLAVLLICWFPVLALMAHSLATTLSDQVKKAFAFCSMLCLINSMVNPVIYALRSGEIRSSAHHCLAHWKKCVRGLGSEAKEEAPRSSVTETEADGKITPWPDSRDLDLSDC

As a reminder, the IC50 is the midpoint of a concentration-inhibition curve. Low readings indicate greater potency in that assay, high ones weaker potency in that assay. As a reminder, the inhibition is the drop in the measured response relative to a control, in per cent. With `O=C(NCC12CC3CC(CC(C3)C1)C2)c1nn(C2CCCCC2)c2c1CCCCCC2` [Cpd 2, 1-cyclohexyl-4,5,6,7,8,9-hexahydro-1H-cyclooctapyrazole-3-carboxylic acid (adamantan-1-ylmethyl)-amide], the “% Inh (Macro), % inhibition of colitis” value in the assay with DSS induced colitis (1 mg/kg oral daily) was −4.3 ± 12.9%; with DSS induced colitis (5 mg/kg oral daily), 21.9 ± 15.2%; with DSS induced colitis (10 mg/kg oral daily), 50.5 ± 9.0%; in the assay on DSS induced colitis (20 mg/kg oral daily), 31.6 ± 8.5%. In addition, the “% Inh (Micro), % inhibition of colitis” value in the assay with DSS induced colitis (5 mg/kg oral daily, microscopic score) is given as 75.7 ± 8.9%. Moreover, at CB2 receptor (Cannabinoid CB2 Receptor Binding IC50, radioligand CP-55,940 0.2 nM, SK-N-MC membranes), the IC50 is 1 nM and 6 nM and 10 nM. For the same compound, the inhibition at 0.003 µM at CB2 receptor (read-out: CB2 receptor binding percent inhibition) is 86%.
